Data reported in US4112076A, “Epi-daunomycin and epi-adriamycin compounds and method of use” (priority 1975, dated 1978).

Legend:
Ascites Sarcoma 180 = Ascites Sarcoma 180 in Swiss CD1 mice, i.p.; type: in vivo, mouse (Swiss CD1); conditions: i.p. one day after inoculation
Procedure: In Table 5 the activity of 3'-4'-epi-6'-hydroxyadriamycin on Ascites Sarcoma 180 in mice is reported. The test was carried out on groups of 10 mice (Swiss CD1). The compound under examination was administered intraperitoneally in varying doses to the test animals one day after intraperitoneal inoculation with 1×10^6 tumor cells/mouse.
The average survival time is given as percentage of the survival time of untreated animals, which is arbitrarily designated as 100%. The number of long term survivors (LTS) is also reported.

[1] = tested on: experimental mouse tumors; test: Experimental mouse tumors (overall); type: in vivo; conditions: mouse, in vivo
Procedure: The test was carried out on groups of 10 mice (Swiss CD1). The compound under examination was administered intraperitoneally in varying doses to the test animals one day after intraperitoneal inoculation with 1×10^6 tumor cells/mouse.
The above compound was tested in comparison with adriamycin in several in vitro systems and experimental mouse tumors.

L 1210 leukemia = L 1210 leukemia bearing BDF mice, single i.p. treatment on first day; type: in vivo, mouse (BDF); conditions: for T/C %: single i.p. day 1
Excerpt: Inbread BDF mice were intraperitoneally inoculated with 1×10^5 leukemia cells/mouse and then treated with 3'-4'-epi-6'-hydroxydaunomycin:Single treatment i.p. on the first day.

Compound	LTS (long term survivors) (Ascites Sarcoma 180; 3 ng/Kg (so in the source))	T/C % (average survival time, % of untreated) (Ascites Sarcoma 180; 3 ng/Kg (so in the source)) [%]	LTS (long term survivors) (Ascites Sarcoma 180; 4.5 ng/Kg (so in the source))	T/C % (average survival time, % of untreated) (Ascites Sarcoma 180; 4.5 ng/Kg (so in the source)) [%]	T/C % (average survival time, % of untreated) (Ascites Sarcoma 180; 6.7 ng/Kg (so in the source)) [%]	T/C % (average survival time, % of untreated) (Ascites Sarcoma 180; 10.5 ng/Kg (so in the source)) [%]	activity in experimental tumors [1]	T/C % (L 1210 leukemia; 7.5 ng/Kg (so in the source)) [%]	T/C % (L 1210 leukemia; 11.5 ng/Kg (so in the source)) [%]	T/C % (L 1210 leukemia; 17.25 ng/Kg (so in the source)) [%]	in vivo activity (L 1210 leukemia; Table 4)
COc1cccc2c1C(=O)c1c(O)c3c(c(O)c1C2=O)C[C@@](O)(C(=O)CO)C[C@@H]3O[C@H]1C[C@@H](N)[C@@H](O)[C@H](CO)O1 [3'-4'-epi-6'-hydroxyadriamycin, 3',4'-epi-6'-hydroxy-adriamycin]	1/10	123	2/10	226	138	138	active in experimental tumors	–	–	–	–
COc1cccc2c1C(=O)c1c(O)c3c(c(O)c1C2=O)C[C@@](O)(C(C)=O)C[C@@H]3O[C@H]1C[C@@H](N)[C@@H](O)[C@H](CO)O1 [3'-4'-epi-6'-hydroxydaunomycin, 3',4'-epi-6'-hydroxy-daunomycin]	–	–	–	–	–	–	–	150	150	150	significant in vivo activity
